In ChEMBL document CHEMBL1201862, “PubChem BioAssay data set” (2004):
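Each compound was tested at five concentrations against cells in 96-well plates for 48 hours. Abbreviation: GI50, concentration required for 50% inhibition of growth.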 The source made the active and inactive calls. No stated cut-off is given here; in the data, active = GI50 up to about 1.1 µM and inactive = higher.

What was measured:
Assay in all cases: DTP human tumour cell line panel, 48 h
786-0 = system: 786-0
A498 = system: A498
A549 = system: A549
ACHN = system: ACHN
BT-549 = system: BT-549
CAKI-1 = system: CAKI-1
COLO 205 = system: COLO 205
DU-145 = system: DU-145
EKVX = system: EKVX
HCC 2998 = system: HCC 2998
HCT-116 = system: HCT-116
HCT-15 = system: HCT-15
HL-60 = system: HL-60
HOP-62 = system: HOP-62
HOP-92 = system: HOP-92
HT-29 = system: HT-29
Hs-578T = system: Hs-578T
IGROV-1 = system: IGROV-1
K562 = system: K562
KM12 = system: KM12
LOX IMVI = system: LOX IMVI
M14 = system: M14
MCF7 = system: MCF7
MDA-MB-231 = system: MDA-MB-231
MDA-MB-435 = system: MDA-MB-435
MDA-N = system: MDA-N
MOLT-4 = system: MOLT-4
Malme-3M = system: Malme-3M
NCI-H226 = system: NCI-H226
NCI-H23 = system: NCI-H23
NCI-H460 = system: NCI-H460
NCI-H522 = system: NCI-H522
NCI/ADR-RES = system: NCI/ADR-RES
OVCAR-3 = system: OVCAR-3
OVCAR-4 = system: OVCAR-4
OVCAR-5 = system: OVCAR-5
OVCAR-8 = system: OVCAR-8
PC-3 = system: PC-3
RPMI-8226 = system: RPMI-8226
RXF 393 = system: RXF 393
SF-268 = system: SF-268
SF-295 = system: SF-295
SK-MEL-28 = system: SK-MEL-28
SK-MEL-2 = system: SK-MEL-2
SK-MEL-5 = system: SK-MEL-5
SK-OV-3 = system: SK-OV-3
SN12C = system: SN12C
SNB-19 = system: SNB-19
SW-620 = system: SW-620
T47D = system: T47D
TK-10 = system: TK-10
U-251 = system: U-251
UACC-257 = system: UACC-257
UACC-62 = system: UACC-62
UO-31 = system: UO-31
CCRF-CEM = system: CCRF-CEM
SF-539 = system: SF-539
SNB-75 = system: SNB-75
SR = system: SR

SMILES: CC(=O)NC(Cc1ccc(O)cc1)C(=O)O (centres undefined)
- GI50 (786-0): > 100 µM (inactive)
- GI50 (A498): > 100 µM (inactive)
- GI50 (A549): > 100 µM (inactive)
- GI50 (ACHN): > 100 µM (inactive)
- GI50 (BT-549): > 100 µM (inactive)
- GI50 (CAKI-1): > 100 µM (inactive)
- GI50 (COLO 205): > 100 µM (inactive)
- GI50 (DU-145): > 100 µM (inactive)
- GI50 (EKVX): > 100 µM (inactive)
- GI50 (HCC 2998): > 100 µM (inactive)
- GI50 (HCT-116): > 100 µM (inactive)
- GI50 (HCT-15): > 100 µM
- GI50 (HL-60): > 100 µM (inactive)
- GI50 (HOP-62): > 100 µM (inactive)
- GI50 (HOP-92): > 100 µM (inactive)
- GI50 (HT-29): > 100 µM (inactive)
- GI50 (Hs-578T): > 100 µM (inactive)
- GI50 (IGROV-1): > 100 µM (inactive)
- GI50 (K562): > 100 µM (inactive)
- GI50 (KM12): > 100 µM (inactive)
- GI50 (LOX IMVI): > 100 µM (inactive)
- GI50 (M14): > 100 µM (inactive)
- GI50 (MCF7): > 100 µM (inactive)
- GI50 (MDA-MB-231): > 100 µM (inactive)
- GI50 (MDA-MB-435): > 100 µM (inactive)
- GI50 (MDA-N): > 100 µM (inactive)
- GI50 (MOLT-4): > 100 µM (inactive)
- GI50 (Malme-3M): > 100 µM (inactive)
- GI50 (NCI-H226): > 100 µM (inactive)
- GI50 (NCI-H23): > 100 µM (inactive)
- GI50 (NCI-H460): > 100 µM (inactive)
- GI50 (NCI-H522): > 100 µM (inactive)
- GI50 (NCI/ADR-RES): > 100 µM (inactive)
- GI50 (OVCAR-3): > 100 µM (inactive)
- GI50 (OVCAR-4): > 100 µM (inactive)
- GI50 (OVCAR-5): > 100 µM (inactive)
- GI50 (OVCAR-8): > 100 µM (inactive)
- GI50 (PC-3): > 100 µM (inactive)
- GI50 (RPMI-8226): > 100 µM (inactive)
- GI50 (RXF 393): > 100 µM (inactive)
- GI50 (SF-268): > 100 µM (inactive)
- GI50 (SF-295): > 100 µM (inactive)
- GI50 (SK-MEL-28): > 100 µM (inactive)
- GI50 (SK-MEL-2): > 100 µM (inactive)
- GI50 (SK-MEL-5): > 100 µM (inactive)
- GI50 (SK-OV-3): > 100 µM (inactive)
- GI50 (SN12C): > 100 µM (inactive)
- GI50 (SNB-19): > 100 µM (inactive)
- GI50 (SW-620): > 100 µM (inactive)
- GI50 (T47D): > 100 µM (inactive)
- GI50 (TK-10): > 100 µM (inactive)
- GI50 (U-251): > 100 µM (inactive)
- GI50 (UACC-257): > 100 µM (inactive)
- GI50 (UACC-62): > 100 µM (inactive)
- GI50 (UO-31): > 100 µM (inactive)

SMILES: COC(OC)[C@@H]1OC[C@H](n2cnc3c(N)ncnc32)[C@H]1O
- GI50 (786-0): > 100 µM (inactive)
- GI50 (A498): > 100 µM (inactive)
- GI50 (A549): > 100 µM (inactive)
- GI50 (ACHN): > 100 µM (inactive)
- GI50 (BT-549): > 100 µM (inactive)
- GI50 (CAKI-1): > 100 µM (inactive)
- GI50 (CCRF-CEM): > 100 µM (inactive)
- GI50 (COLO 205): > 100 µM (inactive)
- GI50 (DU-145): > 100 µM (inactive)
- GI50 (EKVX): > 100 µM (inactive)
- GI50 (HCC 2998): > 100 µM (inactive)
- GI50 (HCT-116): > 100 µM (inactive)
- GI50 (HCT-15): > 100 µM
- GI50 (HOP-62): > 100 µM (inactive)
- GI50 (HOP-92): > 100 µM (inactive)
- GI50 (HT-29): > 100 µM (inactive)
- GI50 (Hs-578T): > 100 µM (inactive)
- GI50 (IGROV-1): > 100 µM (inactive)
- GI50 (K562): > 100 µM (inactive)
- GI50 (KM12): > 100 µM (inactive)
- GI50 (LOX IMVI): > 100 µM (inactive)
- GI50 (M14): > 100 µM (inactive)
- GI50 (MDA-MB-231): > 100 µM (inactive)
- GI50 (MDA-MB-435): > 100 µM (inactive)
- GI50 (MDA-N): > 100 µM (inactive)
- GI50 (MOLT-4): > 100 µM (inactive)
- GI50 (NCI-H226): > 100 µM (inactive)
- GI50 (NCI-H23): > 100 µM (inactive)
- GI50 (NCI-H460): > 100 µM (inactive)
- GI50 (NCI/ADR-RES): > 100 µM (inactive)
- GI50 (OVCAR-3): > 100 µM (inactive)
- GI50 (OVCAR-4): > 100 µM (inactive)
- GI50 (OVCAR-5): > 100 µM (inactive)
- GI50 (PC-3): > 100 µM (inactive)
- GI50 (RPMI-8226): > 100 µM (inactive)
- GI50 (RXF 393): > 100 µM (inactive)
- GI50 (SF-268): > 100 µM (inactive)
- GI50 (SF-295): > 100 µM (inactive)
- GI50 (SF-539): > 100 µM (inactive)
- GI50 (SK-MEL-28): > 100 µM (inactive)
- GI50 (SK-MEL-2): > 100 µM (inactive)
- GI50 (SK-MEL-5): > 100 µM (inactive)
- GI50 (SK-OV-3): > 100 µM (inactive)
- GI50 (SN12C): > 100 µM (inactive)
- GI50 (SNB-19): 5.06 µM (inactive)
- GI50 (SNB-75): > 100 µM (inactive)
- GI50 (SR): > 100 µM (inactive)
- GI50 (SW-620): > 100 µM (inactive)
- GI50 (T47D): > 100 µM (inactive)
- GI50 (TK-10): > 100 µM (inactive)
- GI50 (U-251): > 100 µM (inactive)
- GI50 (UACC-257): > 100 µM (inactive)
- GI50 (UACC-62): > 100 µM (inactive)
- GI50 (UO-31): > 100 µM (inactive)

SMILES: Cc1cc2c(c(=O)n1C)SCC2
- GI50 (786-0): > 100 µM (inactive)
- GI50 (A498): > 100 µM (inactive)
- GI50 (A549): > 100 µM (inactive)
- GI50 (ACHN): > 100 µM (inactive)
- GI50 (BT-549): > 100 µM (inactive)
- GI50 (CAKI-1): > 100 µM (inactive)
- GI50 (CCRF-CEM): > 100 µM (inactive)
- GI50 (COLO 205): > 100 µM (inactive)
- GI50 (DU-145): > 100 µM (inactive)
- GI50 (HCC 2998): > 100 µM (inactive)
- GI50 (HCT-116): > 100 µM (inactive)
- GI50 (HCT-15): > 100 µM
- GI50 (HOP-62): > 100 µM (inactive)
- GI50 (HOP-92): > 100 µM (inactive)
- GI50 (HT-29): > 100 µM (inactive)
- GI50 (Hs-578T): > 100 µM (inactive)
- GI50 (IGROV-1): > 100 µM (inactive)
- GI50 (K562): > 100 µM (inactive)
- GI50 (KM12): > 100 µM (inactive)
- GI50 (LOX IMVI): > 100 µM (inactive)
- GI50 (M14): > 100 µM (inactive)
- GI50 (MDA-MB-231): > 100 µM (inactive)
- GI50 (MDA-MB-435): > 100 µM (inactive)
- GI50 (MDA-N): > 100 µM (inactive)
- GI50 (MOLT-4): > 100 µM (inactive)
- GI50 (Malme-3M): > 100 µM (inactive)
- GI50 (NCI-H226): > 100 µM (inactive)
- GI50 (NCI-H23): > 100 µM (inactive)
- GI50 (NCI-H460): > 100 µM (inactive)
- GI50 (NCI-H522): > 100 µM (inactive)
- GI50 (NCI/ADR-RES): > 100 µM (inactive)
- GI50 (OVCAR-3): > 100 µM (inactive)
- GI50 (OVCAR-4): > 100 µM (inactive)
- GI50 (OVCAR-5): > 100 µM (inactive)
- GI50 (OVCAR-8): > 100 µM (inactive)
- GI50 (PC-3): > 100 µM (inactive)
- GI50 (RPMI-8226): > 100 µM (inactive)
- GI50 (RXF 393): > 100 µM (inactive)
- GI50 (SF-268): > 100 µM (inactive)
- GI50 (SF-295): > 100 µM (inactive)
- GI50 (SK-MEL-28): > 100 µM (inactive)
- GI50 (SK-MEL-2): > 100 µM (inactive)
- GI50 (SK-MEL-5): > 100 µM (inactive)
- GI50 (SK-OV-3): > 100 µM (inactive)
- GI50 (SN12C): > 100 µM (inactive)
- GI50 (SNB-19): > 100 µM (inactive)
- GI50 (SNB-75): > 100 µM (inactive)
- GI50 (SR): > 100 µM (inactive)
- GI50 (SW-620): > 100 µM (inactive)
- GI50 (T47D): > 100 µM (inactive)
- GI50 (TK-10): > 100 µM (inactive)
- GI50 (U-251): > 100 µM (inactive)
- GI50 (UACC-257): > 100 µM (inactive)
- GI50 (UACC-62): > 100 µM (inactive)
- GI50 (UO-31): > 100 µM (inactive)
